Where two headings read alike, the source gives them in different places.
Columns and labels:
[1] = Metabolic stability half-life (matrix not given); format: in vitro ADME; settings: matrix not stated; read-out: metabolic stability half-life t 1/2
Procedure: First, we evaluated the most promising compounds considering in vitro pharmacokinetic properties such as solubility and metabolic stability. […] Compounds 4 and 19 were moderately stable with half‐lives of 10 and 19 min, respectively.

[2] = Permeability across Calu-3 monolayer; format: in vitro ADME; settings: human; Calu‐3 lung epithelial cells
Procedure: subtraction and plotted using GraphPad Prism 8.4.2 (GraphPad Software, San Diego, CA, […]
USA). Solubility (S) was determined based on the First X value of AUC function using a […]
For the evaluation of combined phase I and phase II metabolic stability, the compound (1 μM) was incubated with 1 mg/mL pooled liver S9 fraction from the respective species (Xenotech), […]
2 mM NADPH, 1 mM UDPGA, 10 mM MgCl2, 5 mM GSH and 0.1 mM PAPS at 37 °C for […]
0, 5, 15, 30 or 60 min. The metabolic stability of Testosterone (1 μM) and verapamil (1 μM) […]
were determined in parallel to confirm the enzymatic activity of the S9 fraction. The […]
incubation was stopped by precipitation of S9 enzymes with 2 volumes of cold acetonitrile […]
containing internal standard (750 nM Diphenhydramine). Samples were stored on ice for 10 […]
Concentration of the remaining test compound at the different time points was analyzed by […]
Permeability of compound 4 and 17 was assessed in vitro with Calu-3 HTB-55 cell line (ATCC). […]
Pyruvate. […] TEER was monitored during the experiment and epithelial barriers were considered compromised if the TEER fell below 300 during 4 h of experiment duration. […] 50 µL of sample was mixed with 150 µL of ice-cold acetonitrile containing internal standard diphenhydramine (1 µM) and the concentration of compound was analyzed with LC-MS/MS. […]

planktonic PA14 wt = assay: MIC assay, microbroth dilution; format: cell-based; settings: Pseudomonas aeruginosa
Procedure: composed of 15.5 g/L LB agar, 10 g/L peptone, 5 g/L NaCl and 5 g/L yeast extract, the resulting solution was sterilized before being plated.
The minimum inhibitory concentration […] of drug-free SqNPs, compound 4 prepared either in dimethyl sulfoxide (DMSO) or loaded in SqNPs, free Tob, Tob-loaded SqNPs, and Tob and compound 4 co-loaded SqNPs against planktonic PA14 wt were determined by standard microbroth dilution assays in 96-well plates. PA14 wt suspension was prepared from mid-log cultures in PPGAS medium and diluted to OD600 (absorption at 600 nm) 0.02 (2∙10^7 CFU/mL (CFU, colony-forming units)). PBS served as a control. Following 16 h incubation […]
nm) that were measured using a Tecan microplate reader Infinite M200Pro (Tecan, Crailsheim, Germany). The IC90 values are concentrations at which the growth of bacteria is inhibited by 90%. Three independent experiments were conducted in triplicate. Results are […]
Table S2. MIC assay against PA14 wt. Three independent experiments were conducted in triplicate.
Samples MIC (IC90 value) against PA14 wt
Drug-free SqNPs > 200 µg/mL
Compound (4) prepared in DMSO > 20 µM
Compound (4)-loaded SqNPs > 20 µM (a)
Tob loaded SqNPs 3.125 – 6.25 µg/mL (b)
Tob and compound (4) co-loaded SqNPs 3.125 – 6.25 µg/mL (b)
((4) concentration 20 µM)
(a) Compound (4) concentration
4.3. Minimum Biofilm Eradicating Concentration (MBEC) assay
Chemical and biological materials for in vitro assays. All chemicals were purchased from Sigma-Aldrich unless otherwise specified. Yeast extract was obtained from Fluka. Bacto™ Tryptone were obtained from BD Biosciences. Luria Bertani (LB) agar was obtained from Carl Roth. Gibco® PBS was obtained from Life Technologies. Purified water was prepared by a Milli-Q water purification system (Merk Millipore, Billerica, MA). The PA strain PA14

MIC (planktonic PA14 wt; PA14, Tob concentration, 16 h, read-out: MIC (IC90 value) against PA14 wt)	MIC (planktonic PA14 wt; PA14 wt, read-out: MIC in the planktonic setting)	SMILES	half-life [1]	Papp at 4 h [2]	MIC (planktonic PA14 wt; PA14, compound (4) concentration, 16 h, read-out: MIC (IC90 value) against PA14 wt)
–	–	FC(F)(F)c1cc(NCc2cn(-c3ccc(Oc4ccccc4)cc3)nn2)ccn1 [Compound 4]	10 min	5.3 ×10⁻⁶ cm/s	> 20 µM
–	–	COc1ccc(-n2cc(CNc3ccnc(C(F)(F)F)c3)nn2)cc1Cl [Compound 17]	3 min	11.4 ×10⁻⁶ cm/s	–
3.12 to 6.25 µg/mL	3.12 to 6.25 µg/mL	NC[C@H]1O[C@H](O[C@H]2[C@H](O)[C@@H](O[C@H]3O[C@H](CO)[C@@H](O)[C@H](N)[C@H]3O)[C@H](N)C[C@@H]2N)[C@H](N)C[C@@H]1O [Tobramycin, tobramycin]	–	–	–

From PMC8224453, “A New PqsR Inverse Agonist Potentiates Tobramycin Efficacy to Eradicate Pseudomonas aeruginosa Biofilms” (Advanced Science, 2021)
